Data: paper PMC5270753, “Novel thermostable antibiotic resistance enzymes from the Atlantis II Deep Red Sea brine pool” (Microbial Biotechnology, 2016)

Legend:
ATII-APH(3′) = system: T1, ATII-APH(3′); assay: pyruvate kinase/lactate dehydrogenase coupled assay, NADH oxidation at […] nm; assay type: biochemical; conditions: phosphorylation of aminoglycoside; Michaelis-Menten fit
T1 construct: full-length ORF (804 nt query), codon-optimised synthetic gene, N-terminal 10x-His tag (pET-16b), E. coli BL21(DE3), Talon-purified

ATII-ABL = system: T2, ATII-ABL; assay: chromogenic nitrocefin hydrolysis at […] nm; assay type: biochemical, uncultured bacterium; conditions: 100 nM enzyme; Michaelis-Menten fit
T2 construct: gene bla

Row | SMILES | Km (ATII-APH(3′)) | Km (ATII-ABL)
1 | NCC[C@H](O)C(=O)N[C@@H]1C[C@H](N)[C@@H](O[C@H]2O[C@H](CN)[C@@H](O)[C@H](O)[C@H]2O)[C@H](O)[C@H]1O[C@H]1O[C@H](CO)[C@@H](O)[C@H](N)[C@H]1O [Amikacin] | 5500 ± 1650 µM | –
2 | O=C(Cc1cccs1)N[C@@H]1C(=O)N2C(C(=O)O)=C(/C=C/c3ccc([N+](=O)[O-])cc3[N+](=O)[O-])CS[C@H]12 [Nitrocefin] | – | 5.07 ± 1.65 µM
3 | NC[C@H]1O[C@H](O[C@H]2[C@H](O)[C@@H](O[C@H]3O[C@H](CO)[C@@H](O)[C@H](N)[C@H]3O)[C@H](N)C[C@@H]2N)[C@H](O)[C@@H](O)[C@@H]1O [Kanamycin] | 4.7 ± 0.96 µM | –
